“Also recorded” adds a separate entry of the source.
Assays:
Drosophila [1] = conditions: cited from earlier work
Drosophila [2] = experiment: Olfactory-avoidance classical (Pavlovian) conditioning, memory after training; format: in vivo; conditions: for 24-h memory after massed training: wild-type flies fed 25, 50 or 100 μM chelerythrine in sucrose for 3 h, three cycles of massed training
From the text: In Drosophila, the best characterized assay for associative learning and memory is an odor-avoidance behavioral task (T. Tully, et al. J. Comp. Physiol. A157, 263-277 (1985) incorporated herein by reference). This classical (Pavlovian) conditioning involves exposing the flies to two odors (the conditioned stimuli, or CS), one at a time, in succession. During one of these odor exposures (the CS+), the flies are simultaneously subjected to electric shock (the unconditioned stimulus, or US), whereas exposure to the other odor (the CS−) lacks this negative reinforcement. Following training, the flies are then placed at a ‘choice point’, where the odors come from opposite directions, and expected to decide which odor to avoid. By convention, learning is defined as the fly's performance when testing occurs immediately after training. A single training trial produces strong learning: a typical response is that >90% of the flies avoid the CS+. Performance of wild-type flies from this single-cycle training decays over a roughly 24-hour period until flies once again distribute evenly between the two odors. Flies can also form long-lasting associative olfactory memories, but normally this requires repetitive training regimens.
Pavlovian learning and memory in Drosophila. To assess learning and memory in Drosophila, an olfactory-avoidance classical (Pavlovian) conditioning protocol was used. […] The performance index (PI) was calculated by subtracting the number of flies making the incorrect choice from those making the correct one, dividing by the total number of flies, and multiplying by 100. To avoid odor-avoidance biases, the PI of each single n was calculated by taking an average performance of two groups of flies, one group trained with the CS+ being OCT, the other with the CS+ being MCH. […]
(§1) A 4% (wt/vol) sucrose solution was used as a vehicle for the chelerythrine feeding. […] Feeding was monitored by placing 1/50 volume of green food coloring into the solutions, which could then be seen in the abdomens of flies after eating. […]

CA1 pyramidal cells = conditions: sustained application of low concentrations; cited from earlier work
PKMζ = target: T1, PKMζ (Homo sapiens, UniProt Q05513); conditions: cited from earlier work
T1 sequence (Q05513 1-409 isoform Q05513-2): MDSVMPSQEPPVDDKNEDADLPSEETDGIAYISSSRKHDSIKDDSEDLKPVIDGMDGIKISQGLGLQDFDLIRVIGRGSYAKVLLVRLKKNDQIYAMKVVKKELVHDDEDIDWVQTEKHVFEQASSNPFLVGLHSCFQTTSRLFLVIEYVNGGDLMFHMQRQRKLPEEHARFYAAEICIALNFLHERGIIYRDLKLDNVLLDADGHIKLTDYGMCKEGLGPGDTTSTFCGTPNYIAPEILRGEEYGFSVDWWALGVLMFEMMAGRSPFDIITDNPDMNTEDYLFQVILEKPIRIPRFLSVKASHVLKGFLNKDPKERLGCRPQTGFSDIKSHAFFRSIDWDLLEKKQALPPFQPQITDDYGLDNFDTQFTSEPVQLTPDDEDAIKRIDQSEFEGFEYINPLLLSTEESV

Drosophila [3] = experiment: Olfactory-avoidance conditioning, learning (tested immediately after single-cycle training); format: in vivo; conditions: wild-type flies fed 100 μM chelerythrine for 3 h
From the text: In Drosophila, the best characterized assay for associative learning and memory is an odor-avoidance behavioral task (T. Tully, et al. J. Comp. Physiol. A157, 263-277 (1985) incorporated herein by reference). This classical (Pavlovian) conditioning involves exposing the flies to two odors (the conditioned stimuli, or CS), one at a time, in succession. During one of these odor exposures (the CS+), the flies are simultaneously subjected to electric shock (the unconditioned stimulus, or US), whereas exposure to the other odor (the CS−) lacks this negative reinforcement. […]
Pavlovian learning and memory in Drosophila. […] The performance index (PI) was calculated by subtracting the number of flies making the incorrect choice from those making the correct one, dividing by the total number of flies, and multiplying by 100. To avoid odor-avoidance biases, the PI of each single n was calculated by taking an average performance of two groups of flies, one group trained with the CS+ being OCT, the other with the CS+ being MCH.
as §1

For `C[C@@H]1C[C@@H]([C@H](O)CC2CC(=O)NC(=O)C2)C(=O)[C@@H](C)C1` [cycloheximide], the “anesthesia-resistant memory (ARM)” value (Drosophila [1]; massed or spaced training) is listed as “insensitive”, the “memory after spaced training of radish mutants” value (Drosophila [1]; radish mutants) is listed as “completely blocked” and the “long-term memory (LTM)” value (Drosophila [1]; spaced training) is listed as “blocked”.

For `COc1ccc2c(c[n+](C)c3c4cc5c(cc4ccc23)OCO5)c1OC` [chelerythrine], the “24-h memory after massed training” value (Drosophila [2]) is given as “inhibited 24-hour memory formation in a dose-dependent manner”, the “24-h memory after massed training” value (Drosophila [2]; listed as Chelerythrine) is given as “inhibits 24-h memory after massed training in a dose-dependent manner” and the LTP maintenance (CA1 pyramidal cells) is given as “abolished”. For the same molecule, the “inhibition of other PKC isotypes” value (PKMζ; higher concentrations) was “inhibits other PKC isotypes at higher concentrations”, the “inhibition of PKMζ” value (PKMζ; low concentrations) was “selectively inhibit PKMζ at low concentrations” and the learning (Drosophila [3]) was “not different; also recorded: unaffected”.

B1: FL-MaPKCζ: full-length (FL) mouse atypical PKCζ expressed from heat-shock transgene (protein, UniProt Q02956 1-592, looked up)
chain: MPSRTDPKMDRSGGRVRLKAHYGGDILITSVDAMTTFKDLCEEVRDMCGLHQQHPLTLKWVDSEGDPCTVSSQMELEEAFRLVCQGRDEVLIIHVFPSIPEQPGMPCPGEDKSIYRRGARRWRKLYRANGHLFQAKRFNRGAYCGQCSERIWGLSRQGYRCINCKLLVHKRCHVLVPLTCRRHMDSVMPSQEPPVDDKNDGVDLPSEETDGIAYISSSRKHDNIKDDSEDLKPVIDGVDGIKISQGLGLQDFDLIRVIGRGSYAKVLLVRLKKNDQIYAMKVVKKELVHDDEDIDWVQTEKHVFEQASSNPFLVGLHSCFQTTSRLFLVIEYVNGGDLMFHMQRQRKLPEEHARFYAAEICIALNFLHERGIIYRDLKLDNVLLDADGHIKLTDYGMCKEGLGPGDTTSTFCGTPNYIAPEILRGEEYGFSVDWWALGVLMFEMMAGRSPFDIITDNPDMNTEDYLFQVILEKPIRIPRFLSVKASHVLKGFLNKDPKERLGCRPQTGFSDIKSHAFFRSIDWDLLEKKQTLPPFQPQITDDYGLDNFDTQFTSEPVQLTPDDEDVIKRIDQSEFEGFEYINPLLLSAEESV
modifications: full-length
notes: full-length (FL) mouse atypical PKCζ expressed from heat-shock transgene
With B1 the “24-hour memory after single-cycle training” value (Drosophila [2]; transgene induced by 30-min 32° C. heat shock after training) was “not observed”.
